Results as given in patent publication US5140044A, “UCN-1028D derivatives” (Kyowa Hakko Kogyo Co., Ltd., priority 1989, dated 1992).
In brackets after ≈: the same amount, converted by molar mass. Read-outs that look alike come from different tables or passages of the source.

Columns and labels:
Protein Kinase C = experiment: Protein kinase C inhibitory activity (method of Kikkawa et al.; crude enzyme from rat brain, Histone Type II S phosphorylation); format: biochemical; conditions: crude enzyme partially purified from rat brain; [γ-32P]ATP, 30° C., 3 minutes, pH 7.5
Method: Protein kinase C inhibitory activity
The protein kinase C inhibitory activity was measured by the method of Kikkawa, et al. [Journal of Biological Chemistry, 257, 13341 (1982)].
That is, 10 μl of a test solution containing a UCN-1028D derivative was added to 250 μl of a solution containing 2.5 μmoles of magnesium acetate, 50 μg of Histone Type II S (manufactured by Sigma Co., Ltd.), 20 μg of phosphatidyl serine, 0.8 μg of diolein, 25 nmoles of CaCl2, 5 μg of crude enzyme (partially purified from rat brain according to the method of Kikkawa, et al.) and 5 μmoles of Tris-hydrochloride buffer (pH 7.5), followed by incubation at 30° C. for 3 minutes. Then, phosphorylation was initiated by addition of 1.25 nmoles of [γ-^32 P]ATP (5 to 10×10^3 cpm/nmole), followed by incubation at 30° C. for 3 minutes The reaction was stopped by adding 25% trichloroacetic acid (TCA), and the reaction solution was filtered through a cellulose acetate membrane (pore size: 0.45 μm) (manufactured by Toyo Filter Paper Co., Ltd.). After the membrane was washed four times with 5% TCA, radioactivity remaining on the membrane was measured. As a control, the same procedure as above was repeated without addition of the test solution and radioactivity was likewise measured. The concentration of the test solution showing 50% inhibition as compared with the control was expressed as IC50.

BALB 3T3/H-ras = experiment: Anti-tumor activity: growth inhibition of BALB 3T3 cells transformed with H-ras (Giemsa staining); format: cell-based; conditions: for IC50: Mus musculus, BALB/3T3, 72 h, read-out: IC50 BALB 3T3/H-ras Inhibitory Activity
Method: The anti-tumor activity was determined using BALB 3T3 cells transformed with the carcinogenic gene H-ras (hereafter referred to as BALB 3T3/H-ras).
BALB 3T3/H-ras cells were suspended in a medium comprising DME medium (manufactured by Nissui Pharmaceutical Co., Ltd.) and 10% fetal calf serum (hereafter referred to as medium A) to a concentration of 3.0×10^4 /cells ml. The cell suspension thus prepared was put into wells of a 96-well microtiter plate in an amount of 0.1 ml per well. After culturing at 37° C. for 20 hours in a CO2 -incubator, 0.1 ml each of a test solution appropriately diluted with medium A was added to each well. The cells were further cultured at 37° C. for 72 hours in the CO2 -incubator and the culture supernatant was removed. After being washed once with physiological saline, the residue was treated with 0.1 ml of methanol for 10 minutes to fix the cells. Thereafter, the cells were stained with 0.1 ml of Giemsa staining solution [Giemsa staining stock solution (Merck Art 9204; manufactured by Merck Inc.) : physiological saline=1 : 10] for 5 minutes. After the staining solution was removed, the residue was washed once with 0.2 ml of water. The pigment was extracted with 0.2 ml of 0.1 N hydrochloric acid and the absorbance at 620 nm was measured with a microplate reader. By comparing the absorbance of untreated cells with those of the cells treated with the test compound at known concentrations, the concentration of the test compound at which the growth of the cells is inhibited by 50% (IC50) was calculated.

[1] = growth inhibition, 72 hours, 37° C., Giemsa staining, absorbance at 620 nm

SMILES | IC50 Protein Kinase C Inhibitory Activity (Protein Kinase C) | IC50 (BALB 3T3/H-ras) | IC50 (BALB 3T3/H-ras; [1]) | IC50 BALB 3T3/H-ras Inhibitory Activity (BALB 3T3/H-ras; [1])
COc1c(C[C@@H](C)OC(=O)c2ccncc2)c2c3c(C[C@@H](C)OC(=O)c4ccncc4)c(OC)c(=O)c4c(O)cc(OC)c(c5c(OC)cc(O)c(c1=O)c52)c43 [Compound 33, 14,17-di-O-isonicotinyl UCN-1028D] | 0.15 µg/mL (≈ 0.197 µM) | 0.038 µg/mL (≈ 0.05 µM) | – | –
COc1c(C[C@@H](C)OC(=O)c2ccc([N+](=O)[O-])cc2)c2c3c(C[C@@H](C)OC(=O)c4ccc([N+](=O)[O-])cc4)c(OC)c(=O)c4c(O)cc(OC)c(c5c(OC)cc(O)c(c1=O)c52)c43 [Compound 30, 14,17-bis-O-p-nitrobenzoyl UCN-1028D] | 0.11 µg/mL (≈ 0.13 µM) | 0.07 µg/mL (≈ 0.0825 µM) | – | –
COc1c(C[C@@H](C)OC(=O)[C@@H](N)Cc2ccccc2)c2c3c(C[C@@H](C)OC(=O)[C@@H](N)Cc4ccccc4)c(OC)c(=O)c4c(O)cc(OC)c(c5c(OC)cc(O)c(c1=O)c52)c43 [Compound 17, 14,17-di-O-L-phenylalanyl UCN-1028D bistrifluoroacetate] | 0.088 µg/mL (≈ 0.104 µM) | 0.35 µg/mL (≈ 0.414 µM) | – | –
COc1c(C[C@@H](C)OC(=O)c2ccco2)c2c3c(C[C@@H](C)OC(=O)c4ccco4)c(OC)c(=O)c4c(O)cc(OC)c(c5c(OC)cc(O)c(c1=O)c52)c43 [Compound 35, 14,17-di-O-2-furoyl UCN-1028D] | 0.11 µg/mL (≈ 0.149 µM) | 0.12 µg/mL (≈ 0.162 µM) | – | –
CCCNC(=O)O[C@H](C)Cc1c(OC)c(=O)c2c(O)cc(OC)c3c4c(OC)cc(O)c5c(=O)c(OC)c(C[C@@H](C)OC(=O)NCCC)c(c1c23)c54 [Compound 41, 14,17-bis-O-propylaminocarbonyl UCN-1028D] | 0.94 µg/mL (≈ 1.3 µM) | 0.68 µg/mL (≈ 0.943 µM) | – | –
COc1c(C[C@@H](C)OC(=O)COc2ccccc2)c2c3c(C[C@@H](C)OC(=O)COc4ccccc4)c(OC)c(=O)c4c(O)cc(OC)c(c5c(OC)cc(O)c(c1=O)c52)c43 [Compound 13, 14,17-bis-O-phenyloxyacetyl UCN-1028D] | 0.08 µg/mL (≈ 0.0977 µM) | 0.03 µg/mL (≈ 0.0366 µM) | – | –
COc1c(C[C@@H](C)OC(=O)c2ccccc2)c2c3c(C[C@@H](C)OC(=O)c4ccccc4)c(OC)c(=O)c4c(O)cc(OC)c(c5c(OC)cc(O)c(c1=O)c52)c43 [Compound 44, 14,17-di-O-benzoyl UCN-1028 iso-D] | 0.025 µg/mL (≈ 0.0329 µM) | – | 0.52 µg/mL (≈ 0.685 µM) | –
COc1c(C[C@@H](C)OC(=O)CCCCCN)c2c3c(C[C@@H](C)OC(=O)CCCCCN)c(OC)c(=O)c4c(O)cc(OC)c(c5c(OC)cc(O)c(c1=O)c52)c43 [Compound 21, 14,17-bis-O-6-aminohexanoyl UCN-1028D bis-trifluoroacetate] | 0.08 µg/mL (≈ 0.103 µM) | 2.5 µg/mL (≈ 3.22 µM) | – | –
COc1c(C[C@@H](C)OC(=O)C2CCCCC2)c2c3c(C[C@@H](C)OC(=O)C4CCCCC4)c(OC)c(=O)c4c(O)cc(OC)c(c5c(OC)cc(O)c(c1=O)c52)c43 [Compound 8, 14,17-di-O-cyclohexanecarbonyl UCN-1028D] | 0.017 µg/mL (≈ 0.0221 µM) | 0.56 µg/mL (≈ 0.726 µM) | – | –
CCCCCCCCCC(=O)O[C@H](C)Cc1c(OC)c(=O)c2c(O)cc(OC)c3c4c(OC)cc(O)c5c(=O)c(OC)c(C[C@@H](C)OC(=O)CCCCCCCCC)c(c1c23)c54 [Compound 5, 14,17-di-O-decanoyl UCN-1028D] | 0.068 µg/mL (≈ 0.0792 µM) | 7 µg/mL (≈ 8.15 µM) | – | –
CC[C@H](C)[C@H](N)C(=O)O[C@H](C)Cc1c(OC)c(=O)c2c(O)cc(OC)c3c4c(OC)cc(O)c5c(=O)c(OC)c(C[C@@H](C)OC(=O)[C@@H](N)[C@@H](C)CC)c(c1c23)c54 [Compound 15, 14,17-di-O-L-isoleucyl UCN-1028D bistrifluoroacetate] | 0.15 µg/mL (≈ 0.193 µM) | 0.28 µg/mL (≈ 0.36 µM) | – | –
COc1c(C[C@@H](C)OC(=O)Cc2cccc3ccccc23)c2c3c(C[C@@H](C)OC(=O)Cc4cccc5ccccc45)c(OC)c(=O)c4c(O)cc(OC)c(c5c(OC)cc(O)c(c1=O)c52)c43 [Compound 12, 14,17-bis-O-1-naphthylacetyl UCN-1028D] | 0.05 µg/mL (≈ 0.0564 µM) | 1.3 µg/mL (≈ 1.47 µM) | – | –
COc1c(C[C@@H](C)OC(=O)[C@@H](N)CC(C)C)c2c3c(C[C@@H](C)OC(=O)[C@@H](N)CC(C)C)c(OC)c(=O)c4c(O)cc(OC)c(c5c(OC)cc(O)c(c1=O)c52)c43 [Compound 14, 14,17-di-O-L-leucyl UCN-1028D bistrifluoroacetate] | 0.21 µg/mL (≈ 0.27 µM) | 0.45 µg/mL (≈ 0.579 µM) | – | –
COc1c(C[C@@H](C)OC(=O)c2ccc(O)cc2)c2c3c(C[C@@H](C)OC(=O)c4ccc(O)cc4)c(OC)c(=O)c4c(O)cc(OC)c(c5c(OC)cc(O)c(c1=O)c52)c43 [Compound 26, 14,17-bis-O-p-hydroxybenzoyl UCN-1028D] | 0.084 µg/mL (≈ 0.106 µM) | 0.13 µg/mL (≈ 0.164 µM) | – | –
CCCCCCC(=O)O[C@H](C)Cc1c(OC)c(=O)c2c(O)cc(OC)c3c4c(OC)cc(O)c5c(=O)c(OC)c(C[C@@H](C)OC(=O)CCCCCC)c(c1c23)c54 [Compound 4, 14,17-di-O-heptanoyl UCN-1028D] | 0.03 µg/mL (≈ 0.0387 µM) | 0.52 µg/mL (≈ 0.671 µM) | – | –
COc1c(C[C@@H](C)OS(=O)(=O)c2ccc(C)cc2)c2c3c(C[C@@H](C)OS(=O)(=O)c4ccc(C)cc4)c(OC)c(=O)c4c(O)cc(OC)c(c5c(OC)cc(O)c(c1=O)c52)c43 [Compound 40, 14,17-bis-O-p-toluenesulfonyl UCN-1028D] | 0.066 µg/mL (≈ 0.0768 µM) | 0.04 µg/mL (≈ 0.0466 µM) | – | –
COc1c(C[C@@H](C)OC(=O)[C@H](N)Cc2ccccc2)c2c3c(C[C@@H](C)OC(=O)[C@H](N)Cc4ccccc4)c(OC)c(=O)c4c(O)cc(OC)c(c5c(OC)cc(O)c(c1=O)c52)c43 [Compound 18, 14,17-di-O-D-phenylalanyl UCN-1028D bistrifluoroacetate] | 0.16 µg/mL (≈ 0.189 µM) | 0.84 µg/mL (≈ 0.994 µM) | – | –
COc1c(C[C@@H](C)O)c2c3c(C[C@@H](C)O)c(OC)c(=O)c4c(O)cc(OC)c(c5c(OC)cc(O)c(c1=O)c52)c43 [Compound 45, UCN-1028D] | 3.5 µg/mL (≈ 6.36 µM) | – | – | 2.2 µg/mL (≈ 4 µM)
COc1c(C[C@@H](C)OC(C)=O)c2c3c(C[C@@H](C)OC(C)=O)c(OC)c(=O)c4c(O)cc(OC)c(c5c(OC)cc(O)c(c1=O)c52)c43 [Compound 1, 14,17-di-O-acetyl UCN-1028D] | 1.6 µg/mL (≈ 2.52 µM) | 0.048 µg/mL (≈ 0.0756 µM) | – | –
COc1c(C[C@@H](C)OC(=O)[C@@H]2CCCN2)c2c3c(C[C@@H](C)OC(=O)[C@@H]4CCCN4)c(OC)c(=O)c4c(O)cc(OC)c(c5c(OC)cc(O)c(c1=O)c52)c43 [Compound 20, 14,17-di-O-L-prolyl UCN-1028D bistrifluoroacetate] | 0.33 µg/mL (≈ 0.443 µM) | 3.2 µg/mL (≈ 4.3 µM) | – | –
COc1c(C[C@@H](C)OC(=O)CCc2ccccc2)c2c3c(C[C@@H](C)OC(=O)CCc4ccccc4)c(OC)c(=O)c4c(O)cc(OC)c(c5c(OC)cc(O)c(c1=O)c52)c43 [Compound 10, 14,17-bis-O-3-phenylpropionyl UCN-1028D] | 0.045 µg/mL (≈ 0.0552 µM) | 0.95 µg/mL (≈ 1.17 µM) | – | –
C=CCCC(=O)O[C@H](C)Cc1c(OC)c(=O)c2c(O)cc(OC)c3c4c(OC)cc(O)c5c(=O)c(OC)c(C[C@@H](C)OC(=O)CCC=C)c(c1c23)c54 [Compound 7, 14,17-di-O-pentenoyl UCN-1028D] | 0.06 µg/mL (≈ 0.0839 µM) | 0.17 µg/mL (≈ 0.238 µM) | – | –
